Patent publication US9783511B2, “Carbamate benzoxazine propionic acids and acid derivatives for modulation of RORgamma activity and the treatment of disease” (Merck Sharp & Dohme Corp., priority 2013, dated 2017)

Target: human RORgammaT-Ligand Binding Domain (LBD) (Homo sapiens (Human), UniProt P51449)
Test: RORγ-Ligand Binding Domain TR-FRET Assay (co-activator peptide SRC1_2 recruitment)
Type: biochemical
Settings: HIS-tagged RORγ-LBD 3 nM, biotinylated SRC1 LXXLL peptide 100 nM, incubated overnight at 4° C., 665 nm/615 nm ratio
Outline: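 E. coli-expressed, Ni2+-purified HIS-tagged human RORγ-LBD at 3 nM final in 50 mM Tris pH 7.0, 50 mM KCl, 1 mM EDTA, 0.1 mM DTT, 100 μg/mL delipidated BSA. TR-FRET read-out of SRC1_2 co-activator peptide recruitment; compounds dispensed acoustically.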

human RORgammaT-Ligand Binding Domain (LBD), sequence (P51449 269-508): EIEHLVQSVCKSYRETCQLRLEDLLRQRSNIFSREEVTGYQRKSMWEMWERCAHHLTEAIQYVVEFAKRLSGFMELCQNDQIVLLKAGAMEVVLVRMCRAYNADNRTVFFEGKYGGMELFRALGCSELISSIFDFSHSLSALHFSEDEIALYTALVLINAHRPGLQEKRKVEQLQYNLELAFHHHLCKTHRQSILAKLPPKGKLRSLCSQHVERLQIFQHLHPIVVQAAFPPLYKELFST

IC50	Structure (SMILES)
5.87 nM	COc1cc(S(=O)(=O)N2C[C@H]([C@@H]3C[C@@H]3C(=O)O)Oc3ccc(NC(=O)OC(C)(C)C(F)(F)F)cc32)ccc1F (single isomer, unassigned) [Example 22N, (1R,2S or 1R,2R or 1S,2S or 1S,2R)-2-((S)-4-((4-fluoro-3-methoxyphenyl)sulfonyl)-6-((((1,1,1-trifluoro-2-methylpropan-2-yl)oxy)carbonyl)amino)-3,4-dihydro-2H-benzo[b][1,4]oxazin-2-yl)cyclopropanecarboxylic acid]
22.4 nM	CC(C)(OC(=O)Nc1ccc2c(c1)N(S(=O)(=O)c1ccc(F)c(C(F)(F)F)c1)C[C@H]([C@H]1C[C@H]1C(=O)O)O2)C(F)(F)F [Example 22A, (1R,2S)-2-((S)-4-((4-fluoro-3-(trifluoromethyl)phenyl)sulfonyl)-6-((((1,1,1-trifluoro-2-methylpropan-2-yl)oxy)carbonyl)amino)-3,4-dihydro-2H-benzo[b][1,4]oxazin-2-yl)cyclopropanecarboxylic acid]
47.1 nM	Cc1ccc(S(=O)(=O)N2C[C@H]([C@H]3C[C@H]3C(=O)O)Oc3ccc(NC(=O)OC(C)(C)C(F)(F)F)cc32)cc1 (single isomer, unassigned) [Example 22E, (1S,2S or 1R,2R or 1S,2R or 1R,2S)-2-((S)-4-tosyl-6-((((1,1,1-trifluoro-2-methylpropan-2-yl)oxy)carbonyl)amino)-3,4-dihydro-2H-benzo[b][1,4]oxazin-2-yl)cyclopropanecarboxylic acid]
22.4 nM	COc1cc(S(=O)(=O)N2C[C@H]([C@H]3C[C@@H]3C(=O)O)Oc3ccc(NC(=O)OC(C)(C)C(F)(F)F)cc32)ccc1F (single isomer, unassigned) [Example 22i, (1R,2S or 1R,2R or 1S,2S or 1S,2R)-2-((S)-4-((4-fluoro-3-methoxyphenyl)sulfonyl)-6-((((1,1,1-trifluoro-2-methylpropan-2-yl)oxy)carbonyl)amino)-3,4-dihydro-2H-benzo[b][1,4]oxazin-2-yl)cylcopropanecarboxylic acid]
12.6 nM	CCc1nc(S(=O)(=O)N2C[C@H](CC(C)(C)C(=O)O)Oc3ccc(NC(=O)OC(C)(C)C(F)(F)F)cc32)c(OCC(F)(F)F)s1 [Example 12R, 3-[(2S)-4-{[2-ethyl-5-(2,2,2-trifluoroethoxy)-1,3-thiazol-4-yl]sulfonyl}-6-{[(2,2,2-trifluoro-1,1-dimethylethoxy)carbonyl]ami-no}-3,4-dihydro-2H-1,4-benzoxazin-2-yl]-2,2-dimethylpropanoic acid]
61.8 nM	CC(C)(C[C@H]1CN(S(=O)(=O)c2cncc(C#N)c2)c2cc(NC(=O)OC(C)(C)C(F)(F)F)ccc2O1)C(=O)O [Example 12M, 3-[(2S)-4-[(5-cyanopyridin-3-yl)sulfonyl]-6-{[(2,2,2-trifluoro-1,1-dimethylethoxy)carbonyl]ami-no}-3,4-dihydro-2H-1,4-benzoxazin-2-yl]-2,2-dimethylpropanoic acid]
34.2 nM	Cc1ccc(S(=O)(=O)N2C[C@H]([C@H]3C[C@@H]3C(=O)O)Oc3ccc(NC(=O)OC(C)(C)C(F)(F)F)cc32)cc1 (single isomer, unassigned) [Example 22G, (1S,2S or 1R,2R or 1S,2R or 1R,2S)-2-((S)-4-tosyl-6-((((1,1,1-trifluoro-2-methylpropan-2-yl)oxy)carbonyl)amino)-3,4-dihydro-2H-benzo[b][1,4]oxazin-2-yl)cyclopropanecarboxylic acid]
10.2 nM	CC(C)(OC(=O)Nc1cc(F)c2c(c1)N(S(=O)(=O)c1cccc(C(F)(F)F)c1)C[C@H](CCC(=O)O)O2)C(F)(F)F [Example 29E, 3-[(2S)-8-fluoro-6-{[(2,2,2-trifluoro-1,1-dimethylethoxy)carbonyl]ami-no}-4-{[3-(trifluoromethyl)phenyl]sulfo-nyl}-3,4-dihydro-2H-1,4-benzoxazin-2-yl]propanoic acid]
5.71 nM	Cc1cc(S(=O)(=O)N2C[C@H](CCC(=O)O)Oc3c(F)cc(NC(=O)OC(C)(C)C(F)(F)F)cc32)ccc1F [Example 29A, 3-[(2S)-8-fluoro-4-[(4-fluoro-3-methylphenyl)sulfonyl]-6-{[(2,2,2-trifluoro-1,1-dimethylethoxy)carbonyl]ami-no}-3,4-dihydro-2H-1,4-benzoxazin-2-yl]propanoic acid]

Further lines, the compound ahead of its results:

Structure (SMILES)	IC50
C[C@@H](C[C@H]1CN(S(=O)(=O)c2ccnc(C3CC3)c2)c2cc(NC(=O)OC(C)(C)C(F)(F)F)ccc2O1)C(=O)O (single isomer, unassigned) [Example 6DC, (R or S)-3-((S)-4-((2-cyclopropylpyridin-4-yl)sulfonyl)-6-((((1,1,1-trifluoro-2-methylpropan-2-yl)oxy)carbonyl)amino)-3,4-dihydro-2H-benzo[b][1,4]oxazin-2-yl)-2-methylpropanoic acid]	16.2 nM
CC(C)(OC(=O)Nc1ccc2c(c1)N(S(=O)(=O)c1ccc3c(c1)CCO3)C[C@H](CCC(=O)O)O2)C(F)(F)F [Example 6AE, (S)-3-(4-((2,3-dihydrobenzofuran-5-yl)sulfonyl)-6-((((1,1,1-trifluoro-2-methylpropan-2-yl)oxy)carbonyl)amino)-3,4-dihydro-2H-benzo[b][1,4]oxazin-2-yl)propanoic acid]	12.4 nM
CCc1nc(S(=O)(=O)N2C[C@H](CCC(=O)O)Oc3ccc(NC(=O)OC(C)(C)C(F)(F)F)cc32)c(OCC(F)(F)F)s1 [Example 6CG, 3-[(2S)-4-{[2-ethyl-5-(2,2,2-trifluoroethoxy)-1,3-thiazol-4-yl]sulfonyl}-6-{[(2,2,2-trifluoro-1,1-dimethylethoxy)carbonyl]amino}-3,4-dihydro-2H-1,4-benzoxazin-2-yl]propanoic acid]	22.9 nM
CC(C)(OC(=O)Nc1ccc2c(c1)N(S(=O)(=O)c1cccc(C#N)c1)C[C@H](CCC(=O)O)O2)C(F)(F)F [Example 6L, (S)-3-(4-((3-cyanophenyl)sulfonyl)-6-((((1,1,1-trifluoro-2-methylpropan-2-yl)oxy)carbonyl)amino)-3,4-dihydro-2H-benzo[b][1,4]oxazin-2-yl)propanoic acid]	11 nM
CC(C)(OC(=O)Nc1ccc2c(c1)N(S(=O)(=O)c1ccc(Cl)cn1)C[C@H](CCC(=O)O)O2)C(F)(F)F [Example 6AL, (S)-2-((2-(2-carboxyethyl)-6-((((1,1,1-trifluoro-2-methylpropan-2-yl)oxy)carbonyl)amino)-2H-benzo[b][1,4]oxazin-4(3H)-yl)sulfonyl)-5-chloropyridine]	15 nM
Cc1nn(C(F)F)cc1S(=O)(=O)N1C[C@H](C[C@@H](C)C(=O)O)Oc2ccc(NC(=O)OC(C)(C)C(F)(F)F)cc21 (single isomer, unassigned) [Example 6BG, (R or S)-3-((S)-4-((1-(difluoromethyl)-3-methyl-1H-pyrazol-4-yl)sulfonyl)-6-((((1,1,1-trifluoro-2-methylpropan-2-yl)oxy)carbonyl)amino)-3,4-dihydro-2H-benzo[b][1,4]oxazin-2-yl)-2-methylpropanoic acid]	13.3 nM
C[C@@H](C[C@H]1CN(S(=O)(=O)c2cccc(C3CC3)c2)c2cc(NC(=O)OC(C)(C)C(F)(F)F)ccc2O1)C(=O)O (single isomer, unassigned) [Example 6CU, (S or R)-3-((S)-4-((3-cyclopropylphenyl)sulfonyl)-6-((((1,1,1-trifluoro-2-methylpropan-2-yl)oxy)carbonyl)amino)-3,4-dihydro-2H-benzo[b][1,4]oxazin-2-yl)-2-methylpropanoic acid]	17.8 nM
C[C@H](C[C@H]1CN(S(=O)(=O)c2cn(C(F)F)nc2Cl)c2cc(NC(=O)OC(C)(C)C(F)(F)F)ccc2O1)C(=O)O (single isomer, unassigned) [Example 6DD, (R or S)-3-((S)-4-((3-chloro-1-(difluoromethyl)-1H-pyrazol-4-yl)sulfonyl)-6-((((1,1,1-trifluoro-2-methylpropan-2-yl)oxy)carbonyl)amino)-3,4-dihydro-2H-benzo[b][1,4]oxazin-2-yl)-2-methylpropanoic acid]	23.6 nM
COc1cc(C)ccc1S(=O)(=O)N1C[C@H](CCC(=O)O)Oc2ccc(NC(=O)OC(C)(C)C(F)(F)F)cc21 [Example 6AQ, (S)-3-(4-((2-methoxy-4-methylphenyl)sulfonyl)-6-((((1,1,1-trifluoro-2-methylpropan-2-yl)oxy)carbonyl)amino)-3,4-dihydro-2H-benzo[b][1,4]oxazin-2-yl)propanoic acid]	17.1 nM
CCOc1sc(CC)nc1S(=O)(=O)N1C[C@H](CCC(=O)O)Oc2ccc(NC(=O)OC(C)(C)C(F)(F)F)cc21 [Example 6CC, 3-[(2S)-4-[(5-ethoxy-2-ethyl-1,3-thiazol-4-yl)sulfonyl]-6-{[(2,2,2-trifluoro-1,1-dimethylethoxy)carbonyl]amino}-3,4-dihydro-2H-1,4-benzoxazin-2-yl]propanoic acid]	12.4 nM
CCc1nc(S(=O)(=O)N2C[C@H](CCC(=O)O)Oc3ccc(NC(=O)OC(C)(C)C(F)(F)F)cc32)c(OC(C)C)s1 [Example 6CF, 3-[(2S)-4-{[2-ethyl-5-(1-methylethoxy)-1,3-thiazol-4-yl]sulfonyl}-6-{[(2,2,2-trifluoro-1,1-dimethylethoxy)carbonyl]amino}-3,4-dihydro-2H-1,4-benzoxazin-2-yl]propanoic acid]	20 nM
CCOc1sc(C2CC2)nc1S(=O)(=O)N1C[C@H](C[C@@H](C)C(=O)O)Oc2ccc(NC(=O)OC(C)(C)C(F)(F)F)cc21 (single isomer, unassigned) [Example 6BP, (R or S)-3-((S)-4-((2-cyclopropyl-5-ethoxythiazol-4-yl)sulfonyl)-6-((((1,1,1-trifluoro-2-methylpropan-2-yl)oxy)carbonyl)amino)-3,4-dihydro-2H-benzo[b][1,4]oxazin-2-yl)-2-methylpropanoic acid]	26.6 nM
